Assay results reported in patent US9751919B2, “Antimicrobial compositions comprising a hyaluronic acid binding peptide and a β-lactam antibiotic” (priority 2012, dated 2017).
Values joined by “and” are separate entries in the source; they are usually repeats but may differ in a detail not shown here. Equal values may be shown once. Marks after values point to notes of the source that are not given here.

What was measured:
Test in all cases: Checkerboard assay (FIC index)
CA-MRSA = format: cell-based, Staphylococcus aureus
Procedure: (§1) Checkerboard assays were carried out as described by Bonapace et al.
(§2) Diagnostic Microbiology and Infectious Diseases 2002; 44:363-366. In brief, checkerboard assays were performed in 96 well microtitre trays using an 8-by-8 well configuration. […] 96-well custom designed microtitre plates contained 100 ul/well of cation adjusted Mueller-Hinton broth (eg. for Enterobacteriaceae) with or without lysed horse blood (2-5% V/V) [eg. for S. pneumoniae] and were inoculated to achieve a final concentration of approximately 5×10^5 CFU/ml and incubated in ambient air for 24 hours prior to reading. Colony counts were performed periodically to confirm inocula. Quality control was performed every two weeks using a variety of ATCC QC organisms including; S. pneumoniae 49619, S. aureus 29213, E. faecalis 29212, E. coli 25922 and P. aeruginosa 27853. […] All peptides were assessed for synergy with β-lactams and vancomycin. For all antimicrobials as well as the peptides, CLSI criteria were used.
(§3) The fractional inhibitory concentration index (FIC index) was used to interpret synergy, antagonism or additivity/indifference. FIC index=FIC of drug A+FIC of drug B where:
(§4) The FIC of drug A and drug B was calculated as follows, FIC drug A=MIC of drug A in combination/MIC of drug A alone and FIC of drug B=MIC of drug B in combination/MIC of drug B alone. Synergy was defined as FIC index ≦0.5, additivity/indifference defined as a FIC between 0.5 and 4 and antagonism defined as an FIC index >4.
(§5) The fractional inhibitory concentration index (FIC index) was used to interpret synergy, antagonism or additivity/indifference. FIC index=FIC of drug A+FIC of drug B where the FIC of drug A and drug B was calculated as follows, FIC drug A=MIC of drug A in combination/MIC of drug A alone and FIC of drug B=MIC of drug B in combination/MIC of drug B alone. Synergy was defined as FIC index ≦0.5, additivity/indifference defined as an FIC of between 0.5 and 4 and antagonism defined as an FIC index >4.
(§6) The checkerboard assays were carried out as described by Eliopoulos and Moellering (Chapter 9) in Antibiotic in Laboratory Medicine, Lorian Ed. 1996 as well as Bonapace et al. Diagnostic Microbiology and Infectious Diseases 2002; 44:363-366 and Bonapace et al. Diagnostic Microbiology and Infectious Diseases 2000; 38:43-50. In brief, checkerboard assays were performed in 96 well microtitre trays using an 8-by-8 well configuration. […] 96-well custom designed microtitre plates contained 100 ul/well of cation adjusted Mueller-Hinton broth (eg. for Enterobacteriaceae) with or without lysed horse blood (2-5% V/V) [eg. for S. pneumoniae] and were inoculated to achieve a final concentration of approximately 5×10^5 CFU/ml and incubated in ambient air for 24 hours prior to reading. Colony counts were performed periodically to confirm inocula. Quality control was performed every two weeks using a variety of ATCC QC organisms including; S. pneumoniae 49619, S. aureus 29213, E. faecalis 29212, E. coli 25922 and P. aeruginosa 27853.
(§7) The FIC of drug A and drug B is calculated as follows, FIC drug A=MIC of drug A in combination/MIC of drug A alone and FIC of drug B=MIC of drug B in combination/MIC of drug B alone. Synergy is defined as FIC index ≦0.5, additivity/indifference FIC >0.5-4 and antagonism FIC index >4.
(§8) These agents were obtained as laboratory grade powders from their respective manufacturers. Stock solutions were prepared and dilutions made as described by the Clinical Laboratory Standards Institute (2005 CLSI).

HA-MRSA = format: cell-based, Staphylococcus aureus
Procedure: as §1, §2, §3, §4, §5, §6, §7, §8

VRSA = format: cell-based, Staphylococcus aureus
Procedure: as §1, §2, §3, §4, §5, §6, §7, §8

MRSE = format: cell-based, Staphylococcus epidermidis; conditions: antibiotic combined with PEP35
Procedure: as §6, with “27853. For all antimicrobials as well as PEP35, CLSI criteria was used.” for “27853.”
as §3, §7
Antimicrobials used included PEP35, cefazolin, ceftriaxone, vancomycin, linezolid, tigecycline and daptomycin versus Gram-positive cocci and PEP35, gentamicin, levofloxacin, piperacillin/tazobactam, meropenem and colistin (Polymyxin E) versus Gram-negative bacilli. These agents were obtained as laboratory grade powders from their respective manufacturers. Stock solutions were prepared and dilutions made as described by the Clinical Laboratory Standards Institute (2005 CLSI).
Organisms included Gram-positive cocci (2 strains of each): Methicillin-susceptible Staphylococcus aureus (MSSA), community-associated (CA) and healthcare-associated (HA) methicillin-resistant Staphylococcus aureus (MRSA), vancomycin-intermediate Staphylococcus aureus (VISA), vancomycin-resistant Staphylococcus aureus (VRSA), methicillin-resistant Staphylococcus epidermidis (MRSE), Streptococcus pyogenes, Streptococcus agalactiae, Streptococcus pneumoniae, Enterococcus faecalis, Enterococcus faecium and vancomycin-resistant enterococcus (VRE). Gram-negative bacilli tested (2 strains of each) included: E. coli, Pseudomonas aeruginosa, Klebsiella pneumoniae, K. oxytoca, Enterobacter cloacae, P. mirabilis and Stenotrophomonas maltophilia. MIC testing, following two subcultures from frozen stock were determined by the CLSI 2005 approved broth microdilution method.

[1] = antibiotic combined with PEP35 (added together), CA-MRSA 70857 (USA400)
[2] = β-lactam combined with HybPEP35-1, CA-MRSA 69615 (USA400)
[3] = β-lactam combined with PEP-52, CA-MRSA 69615 (USA400)
[4] = β-lactam combined with Scrambled PEP35, CA-MRSA 69615 (USA400)
[5] = antibiotic combined with PEP35 (added together), HA-MRSA 77090 (USA100/800)
[6] = β-lactam combined with HybPEP35-1, HA-MRSA 70798 (USA100/800)
[7] = β-lactam combined with PEP-52, HA-MRSA 70798 (USA100/800)
[8] = β-lactam combined with Scrambled PEP35, HA-MRSA 70798 (USA100/800)
[9] = antibiotic combined with PEP35 (added together), VRSA 105
[10] = β-lactam combined with HybPEP35-1, VRSA 106
[11] = β-lactam combined with PEP-52, VRSA 106
[12] = β-lactam combined with Scrambled PEP35, VRSA 106
[13] = antibiotic combined with PEP35 (added together), CA-MRSA 69615 (USA400)
[14] = antibiotic combined with PEP35 (added together), HA-MRSA 70798 (USA100/800)
[15] = antibiotic combined with PEP35 (added together), VRSA 106

Row | SMILES | Avg ΣFIC (range) (CA-MRSA; [1]) | Avg ΣFIC (range) (CA-MRSA; [2]) | Avg ΣFIC (range) (CA-MRSA; [3]) | Avg ΣFIC (range) (CA-MRSA; [4]) | Avg ΣFIC (range) (HA-MRSA; [5]) | Avg ΣFIC (range) (HA-MRSA; [6]) | Avg ΣFIC (range) (HA-MRSA; [7]) | Avg ΣFIC (range) (HA-MRSA; [8]) | Avg ΣFIC (range) (VRSA; [9]) | Avg ΣFIC (range) (VRSA; [10]) | Avg ΣFIC (range) (VRSA; [11]) | Avg ΣFIC (range) (VRSA; [12]) | Avg ΣFIC (range) (MRSE; MRSE 79617) | Avg ΣFIC (range) (MRSE; MRSE 83100) | Avg ΣFIC (range) (CA-MRSA; [13]) | Avg ΣFIC (range) (HA-MRSA; [14]) | Avg ΣFIC (range) (VRSA; [15])
1 | Cc1nnc(SCC2=C(C(=O)O)N3C(=O)[C@@H](NC(=O)Cn4cnnn4)[C@H]3SC2)s1 [Cefazolin] | 0.3 (0.12-0.56) and 0.26 (0.09-0.53) | 0.24 | >0.5* | 0.24 | 0.30 (0.12-0.56) and 0.24 (0.075-0.53) | 0.35 | >1* | 0.35 | 0.63 (0.5-1.015) | 0.52 | >1* | 0.52 | 0.88 (0.53-1.25) | 0.52 (0.37-0.62) |  |  | 
2 | CCCCCCCCCC(=O)N[C@@H](Cc1c[nH]c2ccccc12)C(=O)N[C@H](CC(N)=O)C(=O)N[C@@H](CC(=O)O)C(=O)N[C@@H]1C(=O)NCC(=O)N[C@@H](CCCN)C(=O)N[C@@H](CC(=O)O)C(=O)N[C@H](C)C(=O)N[C@@H](CC(=O)O)C(=O)NCC(=O)N[C@H](CO)C(=O)N[C@@H]([C@H](C)CC(=O)O)C(=O)N[C@@H](CC(=O)c2ccccc2N)C(=O)O[C@@H]1C [Daptomycin, daptomycin] | 1.18 (1.015-1.5) |  |  |  | 1.27 (1.015-2.03) |  |  |  | 0.52 (0.37-0.62) |  |  |  | 1.19 (1.03-1.5) | 1.1 (1.0-1.25) | 1.18 (1.015-1.5) | 0.99 (0.53-1.5) | 0.91 (0.56-1.25)
3 | CC(=O)NC[C@H]1CN(c2ccc(N3CCOCC3)c(F)c2)C(=O)O1 [Linezolid, linezolid] | 0.89 (0.5-1.12) |  |  |  | 0.74 (0.53-1.06) |  |  |  | 0.80 (0.5-1.06) |  |  |  | 1.10 (0.56-1.5) | 0.73 (0.515-1.12) | 0.80 (0.515-1.12) | 0.70 (0.5-1.06) | 0.83 (0.5-1.12)
4 | CN(C)c1cc(NC(=O)CNC(C)(C)C)c(O)c2c1C[C@H]1C[C@H]3[C@H](N(C)C)C(O)=C(C(N)=O)C(=O)[C@@]3(O)C(O)=C1C2=O [Tigecycline, tigecycline] | 0.74 (0.5-1.06) |  |  |  | 0.83 (0.5-1.12) |  |  |  | 0.93 (0.62-1.12) |  |  |  | 1.19 (1.03-1.5) | 1.21 (1.03-1.5) | 0.93 (0.62-1.12) | 0.77 (0.5-1.06) | 1.2 (0.56-2.12)
5 | CO/N=C(\C(=O)N[C@@H]1C(=O)N2C(C(=O)O)=C(CSc3nc(=O)c(=O)[nH]n3C)CS[C@H]12)c1csc(N)n1 [Ceftriaxone] | 0.51 (0.18-1.015) | 0.31 | >0.5* | 0.31 | 0.27 (0.09-0.53) and 0.27 (0.09-0.56) | 0.32 | >1* | 0.32 | 0.45 (0.24-0.56) and 0.54 (0.18-1.06) | 0.39 | >1* | 0.39 | 0.88 (0.53-1.25) | 1.05 (0.75-1.25) |  |  | 
6 | C[C@@H](O)[C@H]1C(=O)N2C(C(=O)O)=C(S[C@@H]3CN[C@H](C(=O)N(C)C)C3)[C@H](C)[C@H]12 [Meropenem] |  | 0.70 | >1* | 0.70 |  | 0.38 | >1* | 0.38 |  | 0.91 | >1* | 0.91 |  |  | 0.49 | 0.30 | 0.91
7 | CN[C@H](CC(C)C)C(=O)N[C@H]1C(=O)N[C@@H](CC(N)=O)C(=O)N[C@H]2C(=O)N[C@H]3C(=O)N[C@H](C(=O)N[C@H](C(=O)O)c4cc(O)cc(O)c4-c4cc3ccc4O)[C@H](O)c3ccc(c(Cl)c3)Oc3cc2cc(c3O[C@@H]2O[C@H](CO)[C@@H](O)[C@H](O)[C@H]2O[C@H]2C[C@](C)(N)[C@H](O)[C@H](C)O2)Oc2ccc(cc2Cl)[C@H]1O [Vancomycin] | 1.05 (0.75-1.25) |  |  |  | 0.95 (0.56-1.25) |  |  |  | 0.3 (0.15-0.53) and 0.49 (0.24-1.06) |  |  |  | 0.99 (0.62-1.25) | 0.60 (0.31.12) rpt | 1.19 (1.03-1.5) | 1.19 (1.03-1.5) | 0.27 (0.09-0.53) and 0.40 (0.15-1.06)
